72 compounds from patent publication US8476197B2, “Aminopropenoates as fungicides” (priority 2009, dated 2013) can be followed below.

Marks after values point to notes of the source that are not given here.

The conditions of the first series: pH 2.3.
Regarding `CCOC(=O)C(C#N)=C(Nc1ccccc1SC)c1cc(Cl)cnc1Cl` [Compound 346], the lipophilicity (Log P) is on record as 3.94.
As to `CCOC(=O)C(C#N)=C(NC(C)C(F)(F)F)c1cccnc1OC` (racemic) [Compound 807], the log partition coefficient (Log P) was 3.05.
Regarding `C=CCONC(=O)C(C#N)=C(NC(C)C(C)C)c1cccnc1Cl` (stereo not shown) [Compound 1461], the lipophilicity (Log P) worked out at 2.66.
On to `CC(C)C(C)NC(=C(C#N)C(=O)NC1CCC1)c1cccnc1Cl` (stereo not shown) [Compound 1453], for which the “Log P” value was 3.44^[c]; 3.44^[b].
Same read-out and setting: the value for `CCOC(=O)C(C#N)=C(NC(C)C(C)C)c1cccnc1-c1ccsc1` (stereo not shown) [Compound 1519] was 3.55.
Take `COC(=O)C(C#N)=C(NCC1CCCS1)c1cccnc1Cl` (stereo not shown) [Compound 20]: the “Log P” value amounted to 2.63.
Consider `CC(C)C(C)NC(=C(C#N)C(N)=O)c1cccnc1Cl` (stereo not shown) [Compound 993], for which the “Log P” value turned out to be 1.97.

The series is the same for the next values; noted with them: pH 2.7.
For `CC(C)C(C)NC(=C(C#N)C(=O)NCCC#N)c1cn(C)nc1C(F)F` (stereo not shown) [Compound 1299], the “Log P” value is 2.44^[a].
For the compound `CCCCCCC(C)NC(=C(C#N)C(=O)OCC)c1sc(C)nc1C(F)(F)F` (racemic) [Compound 818], the “Log P” value is 5.22^[a].
As to `CCOC(=O)C(C#N)=C(NC(C)c1nc(C)c(C)s1)c1c(C)nn(C)c1F` (racemic) [Compound 45], the lipophilicity (Log P) was 2.94^[a].
On to `CCOC(=O)C(C#N)=C(NC(C)(C)C(=O)OC)c1cccnc1Cl` [Compound 1274], for which the lipophilicity (Log P) is 2.66^[a].
On the same count and under the same terms, the figure for `CCOC(=O)C(C#N)=C(NC(C#N)CC(C)C)c1cn(C)nc1C(F)F` (racemic) [Compound 1252] is 3.04^[a].
As to `CCCCCC(C)N/C(=C(/C#N)C(=O)OCC)c1ccsc1Br` (stereo not shown) [Compound 862], the “Log P” value is 4.99^[a].
For the compound `CCOC(=O)C(C#N)=C(NCC(C)c1ccccc1Br)c1cn(C)nc1C(F)F` (stereo not shown) [Compound 1348], the log partition coefficient (Log P) was 3.69^[a].
As to `CCOC(=O)C(C#N)=C(NC(C)C(N)=O)c1sccc1Br` (stereo not shown) [Compound 611], the “Log P” value was 1.9^[a].
Consider `C=CC(COCc1ccccc1)NC(=C(C#N)C(=O)OCC)c1sccc1C(F)(F)F` (stereo not shown) [Compound 688], for which the “Log P” value was 4.36^[a].
On the same count and under the same terms, the figure for `COC(=O)C(C#N)=C(Nc1ccccc1SC)c1cn(C)nc1C(F)F` [Compound 357] is 2.8^[a]; for `COC(=O)C(C#N)=C(NC(C)CC1CC1)c1cccnc1Cl` (stereo not shown) [Compound 766] it is 2.84^[a].
Regarding `CCOC(=O)C(C#N)=C(NCCC(C)C)c1cccnc1Cl` [Compound 1185], the “Log P” value was 3.44^[a].
As for `CCC(C)NC(=C(C#N)C(=O)OC)c1sc(C)nc1C(F)(F)F` (stereo not shown) [Compound 831], the “Log P” value was 3.23^[a].
As for `CCOC(=O)C(C#N)=C(NC(C)CN1CCCCC1)c1cccnc1Cl` (racemic) [Compound 273], the “Log P” value was 1.2^[a].
As for `CCOC(=O)C(C#N)=C(NC(C)CC(C)C)c1cn(C)nc1C(F)F` (racemic) [Compound 780], the “Log P” value is 3.46^[a].
Take `CCOC(=O)C(C#N)=C(NC(C)c1nc(C)c(C)s1)c1ncc(C(F)(F)F)cc1Cl` (racemic) [Compound 37]: the “Log P” value is 4.04^[a].
For the compound `CCOC(=O)C(C#N)=C(NC(C)c1cccs1)c1ccsc1Br` (racemic) [Compound 250], the “Log P” value was 3.99^[a].
The same measure, in the same setting: the value for `CCOC(=O)C(C#N)=C(NC(C)C(=O)OC)c1sccc1C(F)(F)F` (stereo not shown) [Compound 657] was 3.11^[a]; that for `CCOC(=O)C(C#N)=C(NC(C)C1CC1)c1cccnc1Cl` (stereo not shown) [Compound 909] was 3.1^[a]; that for `CCOC(=O)C(C#N)=C(NC(CC(C)C)C(=O)OCC)c1cn(C)nc1C(F)F` (stereo not shown) [Compound 1129] was 3.53^[a].
`CCOC(=O)C(C#N)=C(Nc1cccc2oc(C)nc12)c1cccnc1Cl` [Compound 1555]: the “Log P” value is 3^[a].
With `CC(C)C(C)NC(=C(C#N)C(=O)NCc1ccccn1)c1cccnc1Cl` (stereo not shown) [Compound 1517], the “Log P” value was 1.94^[a].
For `CCOC(=O)C(C#N)=C(NC(C)(C)C(=O)OC)c1sccc1Br` [Compound 693], the “Log P” value is 3.23^[a].
Regarding `CCOC(=O)C(C#N)=C(NC(C)c1cscn1)c1ccncc1F` (mixture of isomers) [Compound 301], the “Log P” value is 2.22^[a].
On the same count and under the same terms, the value for `COC(=O)/C(C#N)=C(\NCC(C)N)c1sc(C)nc1C(F)(F)F` (stereo not shown) [Compound 631] was 0.94^[a]; that for `CCCc1nccc(C(NC(C)C(C)C)=C(C#N)C(=O)OCC)c1Cl` (stereo not shown) [Compound 1400] was 4.41^[a]; that for `CCOC(=O)C(C#N)=C(NC(C)(C)C#CCOC)c1sccc1C(F)(F)F` [Compound 1099] was 3.55^[a].
Consider `CCOC(=O)C(C#N)=C(NC(c1cc2ccccc2s1)C(F)(F)F)c1ncc(C(F)(F)F)cc1Cl` (stereo not shown) [Compound 73], for which the “Log P” value is 4.94^[a].
With `CCOC(=O)C(C#N)=C(Nc1cccnc1O)c1cccnc1Cl` [Compound 286], the “Log P” value was 1.9^[a].
Still for that read-out and setting: the figure for `CCOC(=O)C(C#N)=C(NC[Si](C)(C)C)c1cn(C)nc1C(F)F` [Compound 1126] is 3.35^[a].
As to `COC(=O)C(C#N)=C(NC(C)(C)c1ccc(Cl)cc1)c1cccnc1Cl` [Compound 337], the “Log P” value was 3.33^[a].
For the compound `CCOC(=O)C(C#N)=C(NC(C)c1ccccn1)c1ccnc(Br)c1Br` (racemic) [Compound 1409], the lipophilicity (Log P) was 3.11^[a].
Turning to `CCOC(=O)C(C#N)=C(NC(C)c1ccccn1)c1c(C)nn(C)c1Cl` (racemic) [Compound 136], the “Log P” value was 2.49^[a].
Consider `CCOC(=O)C(C#N)=C(NC1CCCCC1)c1cccnc1Cl` [Compound 761], for which the log partition coefficient (Log P) was 3.55^[a].
Turning to `CCSC(=O)C(C#N)=C(NC(C)c1nccs1)c1cccnc1Cl` (stereo not shown) [Compound 1489], the “Log P” value is 2.9^[a].
For `CCON=C(C)C(C)NC(=C(C#N)C(=O)OCC)c1cccnc1Cl` (stereo not shown) [Compound 1636], the “Log P” value is 3.29^[a].
The same measure, in the same setting: the figure for `CCOC(=O)C(C#N)=C(NC(CC)CN(C)C)c1cn(C)nc1C(F)F` (stereo not shown) [Compound 1334] is 1.22^[a].
On to `C#CCNC(=C(C#N)C(=O)OCC)c1cn(C)nc1C(F)F` [Compound 1128], for which the “Log P” value was 2.13^[a].
Still for that read-out and setting: the value for `COC(=O)C(C#N)=C(NC(C)C(C)(C)C)c1sc(C)nc1C(F)(F)F` (racemic) [Compound 920] was 3.83^[a]; that for `COC(=O)C(C#N)=C(NC1CCc2ccccc21)c1cccnc1Cl` (stereo not shown) [Compound 1078] was 3.06^[a].
With `CCOC(=O)C(C#N)=C(NC(C)c1ccccc1Br)c1cccnc1Cl` (stereo not shown) [Compound 1530], the “Log P” value was 3.89^[a].
On the same count and under the same terms, the figure for `CCOC(=O)C(C#N)=C(NC(C)c1nccs1)c1cc(Cl)sc1Cl` (racemic) [Compound 221] is 3.65^[a]; for `CCOC(=O)C(C#N)=C(NC(C)CSc1ccc(Cl)cc1)c1cccnc1Cl` (stereo not shown) [Compound 1156] it is 4.08^[a]; for `CCOC(=O)C(C#N)=C(NC(C)C1CC1)c1sccc1Br` (stereo not shown) [Compound 885] it is 3.76^[a].
Same read-out and setting: the value for `CCOC(=O)C(C#N)=C(NC(C)c1ccccn1)c1cnn(C)c1Cl` (racemic) [Compound 1484] was 2.35^[a]; that for `CC(C)C(C)NC(=C(C#N)C(=O)N1CCSC1)c1cccnc1Cl` (stereo not shown) [Compound 1618] was 3.1^[a]; that for `CCOC(=O)C(C#N)=C(NC(C)(C)C#N)c1nc(Cl)ccc1Cl` [Compound 1011] was 2.98^[a].
On the same count and under the same terms, the value for `CCOC(=O)C(C#N)=C(NC(C)c1nccs1)c1ccnc(Cl)c1Br` (racemic) [Compound 1406] was 2.96^[a].
On to `CCOC(=O)C(C#N)=C(NC(C)C1CC1)c1ccnn1C(F)F` (stereo not shown) [Compound 1647], for which the log partition coefficient (Log P) is 3.01^[a].
`CCOC(=O)C(C#N)=C(NC(C)CC)c1cnc(Cl)cc1Cl` (racemic) [Compound 838]: the “Log P” value is 3.64^[a].
Same read-out and setting: the value for `CCOC(=O)C(C#N)=C(NC(C)c1nccs1)c1sccc1C(F)(F)F` (stereo not shown) [Compound 96] was 3.31^[a].
As to `CCCC(NC(=C(C#N)C(=O)OCC)c1cn(C)nc1C(F)F)C(F)(F)F` (stereo not shown) [Compound 1424], the “Log P” value was 3.53^[a].
`CCOC(=O)C(C#N)=C(NCc1ccccn1)c1c(C)nn(C)c1F` [Compound 39]: the “Log P” value is 1.91^[a].
Still for that read-out and setting: the figure for `CCOC(=O)C(C#N)=C(NC(C)COC)c1sccc1Br` (racemic) [Compound 671] is 3.17^[a]; for `CCOC(=O)C(C#N)=C(NC1CCCC1OCC)c1cn(C)nc1C(F)F` (stereo not shown) [Compound 1353] it is 3.21^[a]; for `CCOC(=O)C(C#N)=C(NC(C)CCc1ccccc1)c1ccsc1Br` (racemic) [Compound 538] it is 4.56^[a].
With `CCOC(=O)C(C#N)=C(NC(C)c1ccncn1)c1cccnc1Cl` (stereo not shown) [Compound 330], the “Log P” value was 2.01^[a].
On to `CCOC(=O)C(C#N)=C(NC(C)C#N)c1cn(C)nc1C(F)F` (racemic) [Compound 1254], for which the log partition coefficient (Log P) was 2.15^[a].
For `CCOC(=O)C(C#N)=C(NC(C)C(C)CC)c1scnc1Cl` (racemic) [Compound 1481], the lipophilicity (Log P) was 3.92^[a].
For the compound `CCOC(=O)C(C#N)=C(NC(C)c1c(Cl)cccc1Cl)c1cccnc1Cl` (stereo not shown) [Compound 1523], the log partition coefficient (Log P) was 3.73^[a].
Take `CCOC(=O)C(C#N)=C(Nc1ccc(C(C)C)cc1)c1sc(C)nc1C(F)(F)F` [Compound 494]: the “Log P” value is 4.54^[a].
In the case of `CCOC(=O)C(C#N)=C(NC(C)Cc1c[nH]c2ccccc12)c1conc1C` (stereo not shown) [Compound 78], the log partition coefficient (Log P) was 3.15^[a].
As to `CCOC(=O)C(C#N)=C(NC(C#N)c1ccc(Cl)cc1Cl)c1cccnc1Cl` (racemic) [Compound 1267], the lipophilicity (Log P) was 3.83^[a].

The series is the same for the next values; noted with them: pH 7.5.
On to `CCOC(=O)C(C#N)=C(Nc1ccccc1SC)c1cc(Cl)cnc1Cl` [Compound 346], for which the lipophilicity (Log P) was 3.7.
Same read-out and setting: the value for `CCOC(=O)C(C#N)=C(NC(C)C(F)(F)F)c1cccnc1OC` (racemic) [Compound 807] was 3.04; that for `C=CCONC(=O)C(C#N)=C(NC(C)C(C)C)c1cccnc1Cl` (stereo not shown) [Compound 1461] was 2.62; that for `COC(=O)C(C#N)=C(NC(C)CSC)c1cccnc1Cl` (racemic) [Compound 576] was 2.38.
As for `CC(C)C(C)NC(=C(C#N)C(=O)NC1CCC1)c1cccnc1Cl` (stereo not shown) [Compound 1453], the “Log P” value was 3.44^[c]; 3.44^[b].
For `CCOC(=O)C(C#N)=C(NC(C)C(C)C)c1cccnc1-c1ccsc1` (stereo not shown) [Compound 1519], the log partition coefficient (Log P) is reported as 3.57.
On to `C=CCOC(=O)C(C#N)=C(NC(C)c1nccs1)c1ccc(Cl)nc1Cl` (stereo not shown) [Compound 1450], for which the “Log P” value is 3.16.
Still for that read-out and setting: the value for `COC(=O)C(C#N)=C(NCC1CCCS1)c1cccnc1Cl` (stereo not shown) [Compound 20] was 2.47; that for `CC(C)C(C)NC(=C(C#N)C(N)=O)c1cccnc1Cl` (stereo not shown) [Compound 993] was 1.96.
